Test results: patent US20180186796A1, “COMPOUNDS AND USES THEREOF” (LEAD DISCOVERY SIENA S.R.L., priority 2014, published 2018)
Values after ≈ are worked out from the molar mass of the structure shown. Counter-ions that a name gives are not always drawn. Like-named read-outs stand apart in the source and are kept apart here.

How the values were obtained:
[1] = PAMPA, BBB permeability; settings: for PAMPA BBB (MR %): Membrane Retention; for Papp at 5 h, 0.5 mM: PAMPA, pH 7.4
[2] = Water solubility assay; settings: for solubility at 24 h / solubility thermodynamic at 24 h: water, 20 °C, thermodynamic from solid; for H2O Solubility: Table 6
Method: Each solid compound (1 mg) was added to 1 mL of water. […] The suspensions were filtered through a 0.45 μm nylon filter (Acrodisc), and the solubilized compound determined by LC-MS-MS assay. For each compound the determination was performed in triplicate. […] The flow rate was 0.2 mL min-^−1 and injection volume was 5 μL. The instrument operated in positive mode and parameters were: detector 1850 V, drying gas pressure 25.0 psi, desolvation temperature 300.0° C., nebulizing gas 40.0 psi, needle 5000 V and shield 600 V. Nitrogen was used as nebulizer gas and drying gas.
Solid compound (1 mg) was added to 1 mL of water. […] The suspensions were filtered through a 0.45-μm nylon filter (Acrodisc), and the solubilised compound determined by LC-UV-MS assay. The determination was performed in triplicate.
Chromatographic analysis was performed with the method above reported and quantification of compounds was made by comparison with apposite calibration curves realized with standard solutions in methanol.

[3] = PAMPA, intestinal (GI) permeability; settings: for PAMPA GI (MR %): Membrane Retention; for Papp at 5 h, 0.5 mM / Papp: PAMPA; for Papp at 5 h, 0.5 mM: pH 7.4; for Papp: Table 6
[4] = Enzymatic stability in human plasma; format: in vitro ADME; settings: for half-life at 100 μM: human, pooled human plasma diluted with phosphate buffer, pH 7.4
[5] = Stability tests in phosphate buffer and methanol; format: physicochemical; settings: 20° C., 48 h incubation
[6] = molecular target: recombinant Fyn (Homo sapiens, UniProt P06241); assay: Enzymatic assay on isolated Fyn kinase
Chain of recombinant Fyn (P06241 whole entry, looked up): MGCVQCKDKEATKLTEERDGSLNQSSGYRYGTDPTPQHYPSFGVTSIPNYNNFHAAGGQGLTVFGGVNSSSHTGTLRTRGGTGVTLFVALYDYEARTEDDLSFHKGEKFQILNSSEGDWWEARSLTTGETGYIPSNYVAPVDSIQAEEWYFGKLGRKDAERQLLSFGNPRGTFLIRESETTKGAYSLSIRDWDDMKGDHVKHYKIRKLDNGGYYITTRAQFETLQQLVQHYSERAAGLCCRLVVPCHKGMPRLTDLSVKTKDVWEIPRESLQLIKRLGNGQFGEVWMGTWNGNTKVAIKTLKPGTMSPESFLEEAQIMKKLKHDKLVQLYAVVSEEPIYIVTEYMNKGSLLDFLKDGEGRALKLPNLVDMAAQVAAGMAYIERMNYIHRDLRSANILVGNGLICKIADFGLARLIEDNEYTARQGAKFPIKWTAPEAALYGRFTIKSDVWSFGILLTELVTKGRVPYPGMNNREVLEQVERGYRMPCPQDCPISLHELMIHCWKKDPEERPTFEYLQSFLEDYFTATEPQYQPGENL
Method: Kinase assays were performed in presence of 200 μM ATP and 100 μM peptide substrate. All inhibition assays were conducted with 0.01 μg active kinase, 0.33 μmol [^γ32P]ATP, 60 mM HEPES-NaOH pH 7.5, 3 μM Na-orthovanadate, 1.2 mM DTT, 50 μg/ml PEG20.0000, 10 mM magnesium acetate, 0.004% NP40 and 10% DMSO in a final volume of 10 μL. Fyn and inhibitors were preincubated in ice for 5 min; after addition of the substrates the reaction was conducted at 30° C. for 10 min. The reaction was stopped by adding 5 μL of 3% phosphoric acid. Aliquots (10 μL) were then transferred into a P30 Filtermat (PerkinElmer), washed five times with 75 mM phosphoric acid and once with acetone for 5 minute. The filter was dried and transferred to a sealable plastic bag, and scintillation cocktail (4 mL) was added. Spotted reactions were read in a MicroBeta Liquid (Perkinelmer) scintillation counter. The ID50 values were obtained according to the following equation:
Ki values toward recombinant Fyn were calculated using the equation:
according to a competitive mechanism of inhibition toward ATP substrate, where [SATP] is the concentration of ATP. Curve fitting was performed with the program GraphPad Prism version 5.00.

[7] = molecular target: T1, Recombinant human Src (Homo sapiens, UniProt P12931); assay: Enzymatic assay on isolated Src; format: biochemical
T1 construct: purchased Upstate (Lake Placid, N.Y.)
T1 sequence (P12931 whole entry): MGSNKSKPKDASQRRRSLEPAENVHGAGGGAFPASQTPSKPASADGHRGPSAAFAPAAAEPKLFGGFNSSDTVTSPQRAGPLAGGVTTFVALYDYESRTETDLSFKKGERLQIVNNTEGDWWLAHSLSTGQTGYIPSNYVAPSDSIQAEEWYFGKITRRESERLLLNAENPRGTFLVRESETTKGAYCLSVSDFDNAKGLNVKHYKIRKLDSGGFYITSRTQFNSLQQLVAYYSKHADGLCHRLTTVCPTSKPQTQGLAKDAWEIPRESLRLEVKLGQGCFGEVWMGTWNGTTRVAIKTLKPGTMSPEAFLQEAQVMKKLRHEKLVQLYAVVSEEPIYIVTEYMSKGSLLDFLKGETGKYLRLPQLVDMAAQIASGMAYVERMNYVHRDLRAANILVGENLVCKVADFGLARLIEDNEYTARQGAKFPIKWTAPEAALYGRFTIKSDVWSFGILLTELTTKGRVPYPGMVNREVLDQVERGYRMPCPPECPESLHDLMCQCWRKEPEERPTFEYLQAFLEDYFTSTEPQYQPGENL
From the text: Recombinant human Src was purchased from Upstate (Lake Placid, N.Y.).

[8] = molecular target: T2, Recombinant human Abl (Homo sapiens, UniProt P00519); assay: Enzymatic assay on isolated Abl; format: biochemical; settings: mean of at least two experiments
T2 construct: purchased Upstate
T2 sequence (P00519 whole entry): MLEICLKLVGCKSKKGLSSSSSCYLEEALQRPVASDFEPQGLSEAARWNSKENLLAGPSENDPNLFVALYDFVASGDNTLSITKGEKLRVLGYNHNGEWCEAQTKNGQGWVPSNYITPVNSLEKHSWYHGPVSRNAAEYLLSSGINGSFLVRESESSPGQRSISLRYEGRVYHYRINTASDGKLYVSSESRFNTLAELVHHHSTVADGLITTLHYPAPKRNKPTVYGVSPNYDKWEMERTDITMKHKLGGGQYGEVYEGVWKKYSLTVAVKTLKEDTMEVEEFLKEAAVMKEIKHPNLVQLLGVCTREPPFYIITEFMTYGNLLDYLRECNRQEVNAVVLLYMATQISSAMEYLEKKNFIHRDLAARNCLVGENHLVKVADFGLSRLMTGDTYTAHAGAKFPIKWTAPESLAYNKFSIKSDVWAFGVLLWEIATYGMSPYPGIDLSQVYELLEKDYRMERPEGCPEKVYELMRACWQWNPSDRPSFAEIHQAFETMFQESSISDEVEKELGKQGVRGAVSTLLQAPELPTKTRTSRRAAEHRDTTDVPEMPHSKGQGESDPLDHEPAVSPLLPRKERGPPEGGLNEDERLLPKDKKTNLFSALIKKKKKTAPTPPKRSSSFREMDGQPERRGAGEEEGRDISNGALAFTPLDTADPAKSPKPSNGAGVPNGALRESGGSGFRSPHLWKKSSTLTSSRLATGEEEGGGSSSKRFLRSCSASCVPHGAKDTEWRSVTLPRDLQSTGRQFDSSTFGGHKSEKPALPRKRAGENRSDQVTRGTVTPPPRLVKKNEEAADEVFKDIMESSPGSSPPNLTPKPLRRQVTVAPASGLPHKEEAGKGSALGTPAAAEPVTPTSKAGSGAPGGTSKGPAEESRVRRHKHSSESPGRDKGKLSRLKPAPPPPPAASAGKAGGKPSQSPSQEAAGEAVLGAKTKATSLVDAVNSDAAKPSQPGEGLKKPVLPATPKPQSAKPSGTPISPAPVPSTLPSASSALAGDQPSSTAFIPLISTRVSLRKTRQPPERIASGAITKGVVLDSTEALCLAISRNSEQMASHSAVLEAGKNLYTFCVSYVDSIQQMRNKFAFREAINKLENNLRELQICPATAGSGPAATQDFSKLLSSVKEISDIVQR
Method: Recombinant human Abl was purchased from Upstate.
Activity was measured in a filter binding assay using an Abl specific peptide substrate (Abtide, Upstate).

[9] = Microsomal stability assay; settings: percentage of unmodified parent drug, human liver microsomes 60 min
[10] = read-out: t1/2 in human plasma (converted)
[11] = methanol, read-out: Stability MeOH t1/2
[12] = phosphate buffer, pH 7.4, read-out: Stability PBS pH 7.4 t1/2
[13] = 37° C., read-out: Stability Human Plasma t1/2 (converted)
[14] = mean of at least two experiments, read-out: Enzymatic Data (Ki, μM) c-Src

Row | Compound | PAMPA BBB (MR %) [1] | Papp at 5 h, 0.5 mM [1] [×10⁻⁶ cm/s] | solubility at 24 h [2] [µM] | solubility thermodynamic at 24 h [2] [µg/mL] | PAMPA GI (MR %) [3] | Papp at 5 h, 0.5 mM [3] [×10⁻⁶ cm/s] | half-life at 500 μM [5, 11] [min] | half-life at 500 μM [5, 12] [min] | melting point [°C] | Papp [3] | Metabolic Stab. [9] [%] | other results
1 | CCC(CN1CCN(C)CC1)OC(=O)N(c1cccc(Br)c1)c1nc(SC)nc2c1cnn2CC(C)c1ccccc1 (centres unmarked) [proSi278 (C), 1-(4-Methylpiperazin-1-yl)butan-2-yl (3-bromophenyl)(6-(methylthio)-1-(2-phenylpropyl)-1H-pyrazolo[3,4-d]pyrimidin-4-yl)carbamate] | (91.4) % | 0.93 | 3.02 (≈ 1.97 µg/mL) | 1.96 (≈ 3 µM) | (88.1) % | 1.45 | > 2880 | > 2880 |  |  |  | Stability Human Plasma t1/2 ([4]; 37° C.): 11.31 h; half-life at 100 μM [4, 10]: 679 min
2 | CSc1nc(N(C(=O)OC(C)CN2CCN(C)CC2)c2cccc(Br)c2)c2cnn(CC(C)c3ccccc3)c2n1 (centres unmarked) [proSi278 (B), 1-(4-Methylpiperazin-1-yl)propan-2-yl (3-bromophenyl)(6-(methylthio)-1-(2-phenylpropyl)-1H-pyrazolo[3,4-d]pyrimidin-4-yl)carbamate] | (70.6) % | 2.39 | 5.37 (≈ 3.43 µg/mL) | 3.4 (≈ 5.32 µM) | (73.3) % | 2.15 | > 2880 | > 2880 |  |  |  | Stability Human Plasma t1/2 ([4]; 37° C.): 10.40 h; half-life at 100 μM [4, 10]: 624 min
3 | CCC(C)Sc1nc(NCCc2ccccc2)c2cnn(CC(Cl)c3ccccc3)c2n1 (centres unmarked) [Si147, 6-(Sec-butylthio)-1-(2-chloro-2-phenylethyl)-N-(2-phenylethyl)-1H-pyrazolo[3,4-d]pyrimidin-4-amine] |  |  |  |  |  |  |  |  | 97 to 98 |  |  | 
4 | CSc1nc(N(C(=O)OCCN2CCN(C)CC2)c2cccc(Cl)c2)c2cnn(CCc3ccccc3)c2n1 [proSi214, 2-(4-Methylpiperazin-1-yl)ethyl (3-chlorophenyl)(6-(methylthio)-1-phenethyl-1H-pyrazolo[3,4-d]pyrimidin-4-yl)carbamate] | (49.7) % | 4.3 | 11.2 (≈ 6.35 µg/mL) | 6.32 (≈ 11.2 µM) | (63.1) % | 4.69 | > 2880 | > 2880 |  |  |  | half-life at 100 μM [4, 13]: 220 min
5 | CN1CCN(CCOC(=O)N(Cc2ccccc2Cl)c2ncnc3c2cnn3CC(Cl)c2ccc(Br)cc2)CC1 (centres unmarked) [proSi221, 2-(4-Methylpiperazin-1-yl)ethyl (1-(2-(4-bromophenyl)-2-chloroethyl)-1H-pyrazolo[3,4-d]pyrimidin-4-yl)(2-chlorobenzyl)carbamate] | (79.4) % | 1.92 | 3.09 (≈ 2 µg/mL) | 1.95 (≈ 3.01 µM) | (78.1) % | 2.38 | > 2880 | > 2880 |  |  |  | half-life at 100 μM [4, 13]: > 2880 min
6 | CC(Cn1nc(-c2ccccc2)c2c(N)ncnc21)c1ccccc1 (centres unmarked) [Si312, 3-Phenyl-1-(2-phenylpropyl)-1H-pyrazolo[3,4-d]pyrimidin-4-amine] |  |  |  |  |  |  |  |  | 105 to 109 |  |  | decreased Fyn activity on substitution of chlorine by methyl in N1 side chain [6]: about 10 fold
7 | Cc1ccc(-c2nn(CC(C)c3ccccc3)c3ncnc(N)c23)cc1 (centres unmarked) [Si338, 3-(4-Methylphenyl)-1-(2-phenylpropyl)-1H-pyrazolo[3,4-d]pyrimidin-4-amine] |  |  |  |  |  |  |  |  | 152 to 155 |  |  | decreased Fyn activity on substitution of chlorine by methyl in N1 side chain ([6]; Si312 vs Si244, Si337 vs Si308, Si338 vs Si309): about 10 fold; Ki ([6]; read-out: Ki Fyn): 995 nM
8 | Nc1ncnc2c1c(-c1ccccc1)nn2CC(Cl)c1ccccc1 (centres unmarked) (as salt: hydrochloride) [Si244, 1-(2-Chloro-2-phenylethyl)-3-phenyl-1H-pyrazolo[3,4-d]pyrimidin-4-amine hydrochloride] |  |  |  |  |  |  |  |  | 129 to 132 |  |  | 
9 | Clc1cccc(Nc2nc(SCCN3CCOCC3)nc3c2cnn3CC(Cl)c2ccccc2)c1 (centres unmarked) [Si181, 1-(2-chloro-2-phenylethyl)-N-(3-chlorophenyl)-6-((2-morpholinoethyl)thio)-1H-pyrazolo[3,4-d]pyrimidin-4-amine, reference compound] |  |  |  |  |  |  |  |  |  | 9.5 10^−6 cm/sec | 95 | Ki [7, 14]: 0.19 µM; H2O Solubility [2]: 0.1 µg/mL; Ki [8]: 0.12 µM
10 | Fc1cccc(Nc2nc(SC3CCCC3)nc3c2cnn3CC(Cl)c2ccccc2)c1 (centres unmarked) [drawing 179] |  |  |  |  |  |  |  |  |  | 14 10^−6 cm/sec | 95 | Ki [7, 14]: 0.11 µM; Ki [8]: > 100 µM
11 | ClC(Cn1ncc2c(Nc3ccccc3)nc(SC3CCCC3)nc21)c1ccccc1 (centres unmarked) |  |  |  |  |  |  |  |  |  | 13 10^−6 cm/sec | 94 | Ki [7, 14]: 0.12 µM
12 | CSc1nc(Nc2cccc(O)c2)c2cnn(CC(Cl)c3ccccc3)c2n1 (centres unmarked) [Si322] |  |  |  |  |  |  |  |  |  | 5.92 10^−6 cm/sec | 98 | Ki ([7]; read-out: Ki c-Src): 0.03 µM; H2O Solubility [2]: 4.3 µg/mL; Ki [8]: 0.15 µM
